Results on 16 molecules are retold here after ChEMBL document CHEMBL1153819, “Use of acetylcholine binding protein in the search for novel alpha7 nicotinic receptor ligands. In silico docking, pharmacological screening, and X-ray analysis” (J Med Chem, 2009).

Each structure is given as a SMILES string. Calls of active or inactive are those of the source. The rule behind the calls is not given here.

Test [1] addresses Acetylcholine-binding protein (Lymnaea stagnalis, UniProt P58154). The experiment in a line: Displacement of [125I]alpha-bungarotoxin from Lymnaea stagnalis His-tagged AchBP.
Test [2] deals with T1, Neuronal acetylcholine receptor; alpha4/beta2 (Homo sapiens, UniProt P17787+P43681). As to the kind of experiment: Activity at human alpha4beta2 nAChR expressed in Xenopus oocytes assessed as inhibition of acetylcholine-evoked current. Format: cell-based, Oocyte. Particulars: for Activity: Oocyte.
For test [3], the target named is T2, Neuronal acetylcholine receptor subunit alpha-7 (Homo sapiens, UniProt P36544). As to the kind of experiment: Displacement of [125I]alpha-bungarotoxin from human alpha7 nAChR expressed in human SH-SY5Y cells. It counts as cell-based. For orientation: Displacement assays read how much labelled ligand stays bound in the presence of the test substance.
Test [4] has as its target T1, Neuronal acetylcholine receptor; alpha4/beta2. The experiment in a line: Displacement of [3H]epibatidine from human alpha4beta2 nAChR expressed in HEK293t cells. Conditions: HEK-293T. Format: cell-based.
Test [5] has as its target T2, Neuronal acetylcholine receptor subunit alpha-7. The experiment in a line: Binding affinity to human alpha7 nAChR allosteric site assessed as decrease in bungarotoxin Bmax at 100 uM by [125I]alpha-bungarotoxin saturation binding experiment.
The target in test [6] is T3, 5-hydroxytryptamine receptor 3A (Homo sapiens) (UniProt P46098).
T3 sequence (whole entry): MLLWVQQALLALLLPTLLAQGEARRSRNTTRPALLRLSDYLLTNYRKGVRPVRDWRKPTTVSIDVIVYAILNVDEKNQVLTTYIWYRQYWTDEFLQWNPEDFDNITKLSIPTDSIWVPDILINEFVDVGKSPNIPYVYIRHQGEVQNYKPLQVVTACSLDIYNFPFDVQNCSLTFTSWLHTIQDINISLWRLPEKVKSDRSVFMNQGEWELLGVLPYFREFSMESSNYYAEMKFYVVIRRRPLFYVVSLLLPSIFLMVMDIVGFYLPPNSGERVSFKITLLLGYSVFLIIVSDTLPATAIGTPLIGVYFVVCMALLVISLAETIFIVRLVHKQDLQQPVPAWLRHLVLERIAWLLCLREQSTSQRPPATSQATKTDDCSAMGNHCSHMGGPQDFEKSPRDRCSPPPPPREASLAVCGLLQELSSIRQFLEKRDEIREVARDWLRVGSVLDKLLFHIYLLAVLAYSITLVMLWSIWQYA
As to the kind of experiment: Inhibition of human 5HT3A receptor.

Test [7] deals with T2, Neuronal acetylcholine receptor subunit alpha-7. The experiment in a line: Activity at human alpha7 nAChR expressed in Xenopus oocytes assessed as inhibition of acetylcholine-evoked current. Conditions: for Activity: Oocyte. Format: cell-based, Oocyte.
For test [8] the target is unchanged. The experiment in a line: Binding affinity to human alpha7 nAChR allosteric site assessed as increase in bungarotoxin Kd at 100 uM by [125I]alpha-bungarotoxin saturation binding experiment.
Test [9] is described as follows: Displacement of [3H]epibatidine from Aplysia californica AchBP.

Chain of Acetylcholine-binding protein (P58154 whole entry): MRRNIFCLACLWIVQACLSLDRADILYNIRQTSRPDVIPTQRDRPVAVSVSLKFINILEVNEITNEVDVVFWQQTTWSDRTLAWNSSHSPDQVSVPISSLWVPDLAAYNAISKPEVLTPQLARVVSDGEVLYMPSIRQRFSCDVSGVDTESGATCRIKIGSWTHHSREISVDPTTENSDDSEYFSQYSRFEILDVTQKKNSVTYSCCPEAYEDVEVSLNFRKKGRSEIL
T2 sequence (P36544 whole entry): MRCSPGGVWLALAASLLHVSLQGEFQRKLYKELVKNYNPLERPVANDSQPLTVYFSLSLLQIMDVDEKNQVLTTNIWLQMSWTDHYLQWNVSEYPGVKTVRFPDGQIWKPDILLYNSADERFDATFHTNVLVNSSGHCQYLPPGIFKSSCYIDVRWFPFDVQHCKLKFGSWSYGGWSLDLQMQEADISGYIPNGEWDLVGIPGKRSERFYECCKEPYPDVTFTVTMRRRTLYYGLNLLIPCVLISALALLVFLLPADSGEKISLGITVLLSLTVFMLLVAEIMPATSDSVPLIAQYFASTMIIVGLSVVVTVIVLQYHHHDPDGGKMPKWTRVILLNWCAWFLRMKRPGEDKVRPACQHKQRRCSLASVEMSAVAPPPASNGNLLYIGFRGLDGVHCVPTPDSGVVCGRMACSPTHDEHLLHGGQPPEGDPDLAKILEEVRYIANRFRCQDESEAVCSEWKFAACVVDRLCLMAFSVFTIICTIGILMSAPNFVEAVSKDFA
T1 sequence (P17787 whole entry): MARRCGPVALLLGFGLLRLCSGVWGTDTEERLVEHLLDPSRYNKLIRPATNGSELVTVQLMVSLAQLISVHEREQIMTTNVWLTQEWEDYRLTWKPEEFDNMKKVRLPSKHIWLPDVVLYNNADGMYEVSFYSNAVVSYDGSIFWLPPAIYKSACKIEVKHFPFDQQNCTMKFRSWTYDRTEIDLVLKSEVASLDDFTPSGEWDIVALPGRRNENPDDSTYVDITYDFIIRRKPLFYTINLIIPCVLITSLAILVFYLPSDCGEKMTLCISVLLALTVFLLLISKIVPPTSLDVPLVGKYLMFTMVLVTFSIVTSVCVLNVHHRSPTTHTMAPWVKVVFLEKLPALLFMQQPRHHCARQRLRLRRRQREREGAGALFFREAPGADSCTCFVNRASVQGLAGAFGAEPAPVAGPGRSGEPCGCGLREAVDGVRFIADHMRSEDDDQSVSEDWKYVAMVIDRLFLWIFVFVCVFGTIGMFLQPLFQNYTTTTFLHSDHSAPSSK
T1 sequence (P43681 whole entry): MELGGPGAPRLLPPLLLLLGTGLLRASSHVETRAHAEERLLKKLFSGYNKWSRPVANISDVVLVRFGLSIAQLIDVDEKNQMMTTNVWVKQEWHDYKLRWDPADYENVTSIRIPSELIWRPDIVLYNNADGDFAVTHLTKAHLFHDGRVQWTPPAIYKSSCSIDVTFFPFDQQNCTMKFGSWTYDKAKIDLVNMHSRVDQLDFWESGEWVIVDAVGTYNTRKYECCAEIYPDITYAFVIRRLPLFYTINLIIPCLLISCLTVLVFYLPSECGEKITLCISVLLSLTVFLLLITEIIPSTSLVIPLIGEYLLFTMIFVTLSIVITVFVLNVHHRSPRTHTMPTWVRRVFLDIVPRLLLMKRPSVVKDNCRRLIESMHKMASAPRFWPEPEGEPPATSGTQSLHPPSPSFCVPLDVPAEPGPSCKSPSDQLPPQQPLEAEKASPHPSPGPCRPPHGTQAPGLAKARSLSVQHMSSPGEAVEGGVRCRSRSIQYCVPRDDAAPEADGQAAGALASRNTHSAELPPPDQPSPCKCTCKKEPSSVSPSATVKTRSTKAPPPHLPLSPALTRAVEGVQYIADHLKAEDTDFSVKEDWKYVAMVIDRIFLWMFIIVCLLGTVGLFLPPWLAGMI

For the molecule `CN1[C@@H]2CC[C@H]1C[C@@H](OC1c3ccccc3CCc3ccccc31)C2` [DEPTROPINE], in test [1], the affinity corresponds to a Ki of 398 nM.
For the molecule `C[N+]1(C)C2CCC1CC(OC1c3ccccc3CCc3ccccc31)C2` (centres undefined), the IC50 – broadly, the midpoint of a concentration-inhibition curve – in [2] worked out at 210 nM; in test [7] it was 880 nM. Further, the Activity entry in test [2] and in test [7] was “Dose-dependent effect” in each case. The Ki (as a rule, a measure of affinity in units of concentration, obtained from inhibition or displacement) in test [3] was 2000 nM; in [1], 63.1 nM. The outcome in test [4] was inactive. Besides, the result in test [5] and in test [6] was Active.
Molecule `CCCN1CCC(OC2c3ccccc3CCc3ccccc32)CC1` had a Ki in test [1] of 631 nM.
Molecule `CC(=O)OCC[N+](C)(C)C` [ACETYLCHOLINE] gave a Ki in test [1] of 3160 nM.
For `c1ccc(CN2C3CCC2CC(OC2c4ccccc4CCc4ccccc42)C3)cc1` (centres undefined), the values for the concentration for half-maximal inhibition (IC50) in [2] and in [7] were 460 nM and 1730 nM, respectively. Besides, the Activity entry in test [2] and in [7] was “Dose-dependent effect” each time. Also, the result in [8], in test [5] and in test [6] was Active. Moreover, the inhibitory constant (Ki) in test [3] was 12600 nM; in test [1], 100 nM. The result in [4] was inactive. The negative-log Ki (pKi) (commonly −log10 of the Ki, conventionally taken in molar units) in [9] is 6.
As for `CCN1C2CCC1CC(OC1c3ccccc3CCc3ccccc31)C2` (centres undefined), in [1], the inhibitory constant (Ki) was 126 nM.
On to `c1ccc2c(c1)CCc1ccccc1C2OC1CCNCC1`, for which the inhibition constant (Ki) in test [1] was 3160 nM.
For the molecule `CN1CCC[C@H]1c1cccnc1` [NICOTINE], in test [9], the pKi is on record as 6.4.
The molecule `Cc1ccc2c(c1)C(OC1CC3CCC(C1)N3C)c1ccccc1CC2` (centres undefined) showed an inhibitory constant (Ki) in [1] of 126 nM.
On the same count and under the same terms, the figure for `NC(N)=NCCN1C2CCC1CC(OC1c3ccccc3CCc3ccccc31)C2` (centres undefined) is 501 nM; for `CN1C2CCC1CC(OC(=O)COC1c3ccccc3CCc3ccccc31)C2` (centres undefined) it is 100 nM.
The same measure, in the same setting: the figure for `N=C(CCN1C2CCC1CC(OC1c3ccccc3CCc3ccccc31)C2)NO` (centres undefined) is 1260 nM; for `Cc1cccc2c1CCc1ccccc1C2OC1CC2CCC(C1)N2C` (centres undefined) it is 316 nM.
Same read-out and setting: the figure for `N#CCCN1C2CCC1CC(OC1c3ccccc3CCc3ccccc31)C2` (centres undefined) is 1000 nM; for `c1ccc2c(c1)CCc1ccccc1C2OC1CC2CCC(C1)N2` (centres undefined) it is 316 nM.
`CN1CCC(OC2c3ccccc3CCc3ccccc32)CC1` [HEPZIDINE]: in test [1], affinity was put at a Ki of 1580 nM.
